Assay results reported in publication PMC5869686 (Journal of the American Chemical Society, 2018).

Target: succinate dehydrogenase (mitochondrial Sdh, complex II) (Bos taurus, UniProt P35720+Q3T189+Q95123)
Test: colorimetric mitochondrial complex II activity assay
Type: biochemical

succinate dehydrogenase (mitochondrial Sdh, complex II), sequence (P35720 30-169): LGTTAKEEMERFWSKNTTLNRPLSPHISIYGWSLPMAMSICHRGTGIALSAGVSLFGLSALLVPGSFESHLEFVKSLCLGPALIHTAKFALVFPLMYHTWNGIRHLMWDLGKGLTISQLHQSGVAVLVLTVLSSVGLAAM
succinate dehydrogenase (mitochondrial Sdh, complex II), sequence (Q3T189 29-280): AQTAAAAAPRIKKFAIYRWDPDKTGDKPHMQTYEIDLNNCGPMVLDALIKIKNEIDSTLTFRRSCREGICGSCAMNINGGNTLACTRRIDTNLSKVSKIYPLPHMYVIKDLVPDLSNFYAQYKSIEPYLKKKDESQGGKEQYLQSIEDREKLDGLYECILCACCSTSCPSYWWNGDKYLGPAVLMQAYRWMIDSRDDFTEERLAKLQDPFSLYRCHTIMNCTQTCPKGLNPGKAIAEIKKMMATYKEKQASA
succinate dehydrogenase (mitochondrial Sdh, complex II), sequence (Q95123 56-158): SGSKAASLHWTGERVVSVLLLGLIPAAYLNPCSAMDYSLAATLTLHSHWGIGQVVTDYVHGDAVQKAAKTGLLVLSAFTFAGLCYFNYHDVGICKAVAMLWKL
succinate dehydrogenase (mitochondrial Sdh, complex II), sequence (P31039 44-665 partner): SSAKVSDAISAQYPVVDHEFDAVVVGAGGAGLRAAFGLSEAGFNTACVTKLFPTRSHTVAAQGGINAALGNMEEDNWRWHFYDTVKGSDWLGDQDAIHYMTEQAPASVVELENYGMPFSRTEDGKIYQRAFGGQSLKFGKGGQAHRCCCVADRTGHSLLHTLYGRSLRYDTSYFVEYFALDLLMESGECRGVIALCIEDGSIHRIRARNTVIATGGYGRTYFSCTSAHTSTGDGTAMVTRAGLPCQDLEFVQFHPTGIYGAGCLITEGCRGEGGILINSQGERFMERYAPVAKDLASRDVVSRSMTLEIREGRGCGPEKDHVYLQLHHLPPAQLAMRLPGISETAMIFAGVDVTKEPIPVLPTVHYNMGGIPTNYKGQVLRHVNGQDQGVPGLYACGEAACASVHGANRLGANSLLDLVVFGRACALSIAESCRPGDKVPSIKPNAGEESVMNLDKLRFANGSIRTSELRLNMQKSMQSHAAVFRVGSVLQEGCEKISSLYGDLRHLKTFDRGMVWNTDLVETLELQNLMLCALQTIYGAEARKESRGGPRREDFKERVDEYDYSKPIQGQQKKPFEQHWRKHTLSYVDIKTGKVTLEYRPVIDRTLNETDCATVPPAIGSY

promysalin [(-)-1]
IC50: 2500 nM
